Test system: Plasmodium berghei
Experiment: Luciferase/luciferin-expressing antifolate-resistant parasites were used to infect a culture of HepG2 cells that were pre-incubated with compounds. Infected hepatocytes emit light due to the luciferase reaction. Assay results are presented as the percent inhibition of light emission compared to control. […]
Format: functional
Details: sporozoite; for IC90: read-out: LUCIFERASE INFECTION ASSAY - IC90
[1] = read-out: LUCIFERASE INFECTION ASSAY - IC50

| SMILES | IC90 | further results |
| --- | --- | --- |
| Cc1cc(C(=O)NN2Cc3ccccc3C2=N)c(C)n1-c1ccccc1 | > 10 µM | IC50 (HEPG2TOX_HILL_SLOPE 1.03, HEPG2TOX_R_SQUARED 0.677, read-out: LUCIFERASE INFECTION ASSAY - IC50): > 10 µM |
| C=c1ccccc1=C1NN=C(Nc2ccc(F)c(F)c2F)O1 | > 10 µM | IC50 (FFLUC_HILL_SLOPE 1.45, FFLUC_R_SQUARED 0.745, PBLUC_HILL_SLOPE 0.464, PBLUC_R_SQUARED 0.746, read-out: LUCIFERASE INFECTION ASSAY - IC50): 0.97 µM |
| CCCOc1ccc(C(=O)CCC(=O)NNC(=O)c2ccncc2)cc1 | 5.4 µM | IC50 (HEPG2TOX_HILL_SLOPE 2.12, HEPG2TOX_R_SQUARED 0.868, PBLUC_HILL_SLOPE 86, PBLUC_R_SQUARED 0.219, read-out: LUCIFERASE INFECTION ASSAY - IC50): 5.26 µM |
| COc1ccc(-n2c(C)cc(C(=O)Cn3ncc(Cl)c(Cl)c3=O)c2C)cc1 | > 10 µM | IC50 (HEPG2TOX_HILL_SLOPE 0.989, HEPG2TOX_R_SQUARED 0.688, read-out: LUCIFERASE INFECTION ASSAY - IC50): > 10 µM |
| CCCCCCCCCCCc1nnc(SCc2ccc(Cl)cc2)n1-c1ccccc1C(F)(F)F | > 6.3 µM | IC50 (FFLUC_HILL_SLOPE 9.94, FFLUC_R_SQUARED 0.653, read-out: LUCIFERASE INFECTION ASSAY - IC50): > 6.3 µM |
| O=C(Nc1ncccc1O)c1ccc(S(=O)(=O)NCc2ccco2)cc1 | > 10 µM | IC50 (PBLUC_HILL_SLOPE 0.839, PBLUC_R_SQUARED 0.334, read-out: LUCIFERASE INFECTION ASSAY - IC50): 1.04 µM |
| CN(C(=O)COc1cc2ccccc2cc1C(=O)NCc1ccccc1)C1CCCCC1 | > 10 µM | IC50 (FFLUC_HILL_SLOPE 11, FFLUC_R_SQUARED 0.0654, read-out: LUCIFERASE INFECTION ASSAY - IC50): > 10 µM |
| Cc1ccc(OCc2csc(-c3cnn(C)c3)n2)c2c1C(C)CC2=O (centres undefined) | > 10 µM | IC50 (PBLUC_HILL_SLOPE 1.52, PBLUC_R_SQUARED 0.607, read-out: LUCIFERASE INFECTION ASSAY - IC50): 3.47 µM |
| Cc1cccc(-c2nn(-c3ccccc3)cc2/C=C2\CCn3c2nc2cc(Cl)ccc2c3=O)c1 | > 10 µM | IC50 (FFLUC_HILL_SLOPE 2.22, FFLUC_R_SQUARED 0.239, read-out: LUCIFERASE INFECTION ASSAY - IC50): > 10 µM |
| Cn1c(NCC2CC2)nc2cnc(Nc3cccc(Oc4ccccc4)c3)cc21 | 3.77 µM | IC50 (HEPG2TOX_HILL_SLOPE 1.32, HEPG2TOX_R_SQUARED 0.983, PBLUC_HILL_SLOPE 3.67, PBLUC_R_SQUARED 0.52, read-out: LUCIFERASE INFECTION ASSAY - IC50): 2.07 µM |
| Cc1cc(C(=O)CN2CCc3sccc3C2)c(C)n1Cc1cccs1 | > 10 µM | IC50 [1]: 2.21 µM |
| O=C(O)CCCNC(=O)CCn1nnc2ccccc2c1=O | > 10.8 µM | IC50 [1]: > 10.8 µM |
| COc1ccc(NC(=O)c2cccc(Cl)c2)cc1OCc1cccnc1 | > 10 µM | IC50 [1]: > 10 µM |
| Cn1c(-c2c(-c3ccccc3)n[nH]c2-c2ccccc2O)nc2ccccc21 | > 10 µM | IC50 (FFLUC_HILL_SLOPE 1.64, FFLUC_R_SQUARED 0.277, read-out: LUCIFERASE INFECTION ASSAY - IC50): > 10 µM |
| CS(=O)(=O)Nc1cccc(-c2cn3c(-c4ccc(CO)cc4)cnc3cn2)c1 | 8.14 µM | IC50 (PBLUC_HILL_SLOPE 16.4, PBLUC_R_SQUARED 0.351, read-out: LUCIFERASE INFECTION ASSAY - IC50): 7.12 µM |
| COc1cc(-n2nnnc2-c2ccc([N+](=O)[O-])cc2)c(Cl)cc1Cl | > 9.01 µM | IC50 [1]: > 9.01 µM |
| CC(C)c1ccccc1N(C(=O)C1CCC1)c1nc2ccccc2s1 | > 10 µM | IC50 [1]: > 10 µM |
| Cc1nnc(SCCCc2nc(-c3ccncc3)no2)n1Cc1ccccc1 | > 10 µM | IC50 [1]: > 10 µM |
| COc1ccc(-c2nc3ccccc3n2-c2cc(-c3ccccc3)nn2-c2ccccc2)cc1 | 8.43 µM | IC50 (FFLUC_HILL_SLOPE 12.7, FFLUC_R_SQUARED 0.403, HEPG2TOX_HILL_SLOPE 1.43, HEPG2TOX_R_SQUARED 0.399, PBLUC_HILL_SLOPE 4.08, PBLUC_R_SQUARED 0.666, read-out: LUCIFERASE INFECTION ASSAY - IC50): 4.92 µM |
| Cc1cc(C(=O)C(C)OC(=O)c2ccc(NS(=O)(=O)c3ccc4c(c3)OCCO4)cc2)c(C)n1-c1ccc(Cl)cc1 (centres undefined) | > 10 µM | IC50 (FFLUC_HILL_SLOPE 2.2, FFLUC_R_SQUARED 0.531, HEPG2TOX_HILL_SLOPE 0.947, HEPG2TOX_R_SQUARED 0.641, PBLUC_HILL_SLOPE 4.36, PBLUC_R_SQUARED 0.544, read-out: LUCIFERASE INFECTION ASSAY - IC50): 6.62 µM |
| O=c1cc(NCCC2=CCCCC2)c2ccccc2o1 | 3.21 µM | IC50 (FFLUC_HILL_SLOPE 16, FFLUC_R_SQUARED 0.221, HEPG2TOX_HILL_SLOPE 2.34, HEPG2TOX_R_SQUARED 0.809, PBLUC_HILL_SLOPE 2.17, PBLUC_R_SQUARED 0.461, read-out: LUCIFERASE INFECTION ASSAY - IC50): 1.17 µM |

| SMILES | IC90 | further results |
| --- | --- | --- |
| CCC(Nc1nc(C(F)(F)F)nc2ccccc12)c1ccc(Br)cc1 (centres undefined) | > 10 µM | IC50 (PBLUC_HILL_SLOPE 5.54, PBLUC_R_SQUARED 0.0475, read-out: LUCIFERASE INFECTION ASSAY - IC50): > 10 µM |
| O=C(OCC(=O)C12CC3CC(CC(C3)C1)C2)c1ccc(Oc2ccc(Cl)cc2[N+](=O)[O-])cc1 | > 10 µM | IC50 (FFLUC_HILL_SLOPE 17.5, FFLUC_R_SQUARED 0.352, PBLUC_HILL_SLOPE 8.52, PBLUC_R_SQUARED 0.214, read-out: LUCIFERASE INFECTION ASSAY - IC50): 9.42 µM |
| CN(Cc1ccc(Cl)cc1Cl)C(=O)c1ccc(NC(=O)C2CC2)cc1 | > 10 µM | IC50 (FFLUC_HILL_SLOPE 0.429, FFLUC_R_SQUARED 0.32, PBLUC_HILL_SLOPE 3.47, PBLUC_R_SQUARED 0.753, read-out: LUCIFERASE INFECTION ASSAY - IC50): 6.88 µM |
| COc1ccc(-c2cnc3cnc(/C=C/c4ccccc4)cn23)cc1 | 2.11 µM | IC50 (PBLUC_HILL_SLOPE 3.95, PBLUC_R_SQUARED 0.779, read-out: LUCIFERASE INFECTION ASSAY - IC50): 1.21 µM |
| Cn1c(=O)/c(=C\c2cn(-c3ccccc3)nc2-c2ccccc2)s/c1=C\C(=O)C(C)(C)C | > 10 µM | IC50 (FFLUC_HILL_SLOPE 11.8, FFLUC_R_SQUARED 0.797, read-out: LUCIFERASE INFECTION ASSAY - IC50): > 10 µM |
| CC1(C)CC(=O)c2c(SCCOC(=O)Nc3ccccc3)sc(C#N)c2C1 | > 8.24 µM | IC50 [1]: > 8.24 µM |
| COc1ccc2c(-c3ccccc3)cc(SC(c3ccccc3)c3ccccc3)nc2c1 | > 10 µM | IC50 (FFLUC_HILL_SLOPE 74, FFLUC_R_SQUARED 0.292, read-out: LUCIFERASE INFECTION ASSAY - IC50): > 10 µM |
| COc1ccccc1CNc1nc(NCc2cccc(OC)c2OC)c2sccc2n1 | > 7.56 µM | IC50 (PBLUC_HILL_SLOPE 0.707, PBLUC_R_SQUARED 0.411, read-out: LUCIFERASE INFECTION ASSAY - IC50): 2.69 µM |
| CC(NC(=S)N/N=C/c1cc(Cl)cc(Cl)c1O)c1ccccc1 (centres undefined) | 8.46 µM | IC50 (PBLUC_HILL_SLOPE 1.69, PBLUC_R_SQUARED 0.56, read-out: LUCIFERASE INFECTION ASSAY - IC50): 2.31 µM |
| Cc1ccc(NC2=CC(=O)CC(c3ccco3)C2)c(N)c1 (centres undefined) | 6.68 µM | IC50 (HEPG2TOX_HILL_SLOPE 7.93, HEPG2TOX_R_SQUARED 0.791, PBLUC_HILL_SLOPE 1.82, PBLUC_R_SQUARED 0.701, read-out: LUCIFERASE INFECTION ASSAY - IC50): 2 µM |
| CCC(C)NC(=O)c1c(NC(=O)c2ccc(OC)cc2)nc2ccc(C)cn12 (centres undefined) | > 8.67 µM | IC50 (HEPG2TOX_HILL_SLOPE 1.94, HEPG2TOX_R_SQUARED 0.651, PBLUC_HILL_SLOPE 14.9, PBLUC_R_SQUARED 0.0352, read-out: LUCIFERASE INFECTION ASSAY - IC50): 7.7 µM |
| Cc1c(C(=O)Nc2ccc(Oc3ccccc3)cc2)cnn1C | > 10 µM | IC50 (HEPG2TOX_HILL_SLOPE 1.34, HEPG2TOX_R_SQUARED 0.933, PBLUC_HILL_SLOPE 3.41, PBLUC_R_SQUARED 0.294, read-out: LUCIFERASE INFECTION ASSAY - IC50): 7.03 µM |
| c1ccc(C(Nc2ncnc3ccsc23)c2cccs2)cc1 (centres undefined) | 2.58 µM | IC50 [1]: 1.14 µM |
| CC(C)CC(N)c1csc(NC(=O)Nc2ccccc2-c2ccccc2)n1 (centres undefined) | 4.16 µM | IC50 (PBLUC_HILL_SLOPE 10.5, PBLUC_R_SQUARED 0.579, read-out: LUCIFERASE INFECTION ASSAY - IC50): 3.37 µM |
| CCN(CC)CCn1c(NC(=O)c2cccc3c[nH]nc23)nc2ccccc21 | > 10 µM | IC50 (HEPG2TOX_HILL_SLOPE 0.322, HEPG2TOX_R_SQUARED 0.707, PBLUC_HILL_SLOPE 3.59, PBLUC_R_SQUARED 0.259, read-out: LUCIFERASE INFECTION ASSAY - IC50): 6.09 µM |
| CC(=O)c1ccc(OCC(O)CN2CCC(c3c[nH]c4ccccc34)CC2)cc1 (centres undefined) | > 10 µM | IC50 [1]: 5.84 µM |
| CN(C)CCCNc1nc2sc3c(c2c(=O)n1-c1ccccc1)CCCCC3 | > 8.32 µM | IC50 [1]: > 8.32 µM |
| Cc1c(C(=O)OCC(=O)/C=C2\N(C)c3ccccc3C2(C)C)sc2nc3n(c(=O)c12)CCC3 | > 10 µM | IC50 [1]: > 10 µM |
| CC(C)Cc1ccc(C(Nc2ccc3nnnn3n2)C(C)C)cc1 (centres undefined) | 3.82 µM | IC50 (PBLUC_HILL_SLOPE 13.1, PBLUC_R_SQUARED 0.631, read-out: LUCIFERASE INFECTION ASSAY - IC50): 3.23 µM |
| Cc1cc(C(=O)C[n+]2ccc(N(C)C)cc2)c(C)n1Cc1ccccc1 | 4.24 µM | IC50 (HEPG2TOX_HILL_SLOPE 1.63, HEPG2TOX_R_SQUARED 0.735, PBLUC_HILL_SLOPE 13.8, 4.61, PBLUC_R_SQUARED 0.572, 0.235, read-out: LUCIFERASE INFECTION ASSAY - IC50): 3.09 µM |
| COc1ccc(CCNc2ncnc3sc(C)cc23)cc1OC | 2.92 µM | IC50 [1]: 0.791 µM |

Source: ChEMBL document CHEMBL4483862, “Open-source discovery of chemical leads for next-generation chemoprotective antimalarials” (2018)
